Counter-ions that a name gives are not always drawn. Like-named read-outs stand apart in the source and are kept apart here.
Legend:
human NPY Y5 receptor = target: T1, human NPY Y5 receptor (Homo sapiens, UniProt Q15761); experiment: NPY binding inhibition test ([125I]peptide YY binding to membranes of NPY Y5 receptor expression cells); conditions: [125I]peptideYY, membrane sample, 25° C., 2 hours; read-out: IC50 against specific peptide YY binding
T1 construct: expressed in transfected cells; host or cells: COS-7, CHO and LM(tk-)
T1 sequence (Q15761 1-445): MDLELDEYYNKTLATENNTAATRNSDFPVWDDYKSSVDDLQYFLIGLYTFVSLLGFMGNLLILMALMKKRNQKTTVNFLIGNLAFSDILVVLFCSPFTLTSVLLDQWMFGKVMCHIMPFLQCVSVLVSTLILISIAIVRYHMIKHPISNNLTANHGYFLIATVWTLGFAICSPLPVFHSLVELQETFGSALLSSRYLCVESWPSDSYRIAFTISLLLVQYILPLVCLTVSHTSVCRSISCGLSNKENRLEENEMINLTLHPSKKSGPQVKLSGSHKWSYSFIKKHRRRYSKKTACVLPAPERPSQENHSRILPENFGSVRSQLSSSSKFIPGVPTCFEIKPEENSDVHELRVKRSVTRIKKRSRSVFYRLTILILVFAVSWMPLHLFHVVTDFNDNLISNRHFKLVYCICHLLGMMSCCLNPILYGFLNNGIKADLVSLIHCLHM
Description: cDNA sequence encoding human NPY Y5 receptor (cf. International patent publication number WO96/16542) was cloned into expression vectors pcDNA3, pRc/RSV (made by invitrogen Inc.) and pCI-neo (made by Promega Inc.). The expression vectors thus obtained were transfected to host cells COS-7, CHO and LM(tk-) (American Type Culture Collection) by cationic lipid method (Proceedings of the National Academy of Sciences of the United States of America, 84: 7413 (1987)) to give NPY Y5 receptor expression cells.
A membrane sample prepared from the cells which expressed NPY Y5 receptor was incubated together with a test compound and [^125I]peptideYY (made by NEN) (20,000 cpm) in man assay buffer (25 mM Tris buffer, pH 7.4, containing 10 mM magnesium chloride, 1 mM phenylmethylsulfonyl fluoride, 0.1% bacitracin and 0.5% bovine serum albumin) at 25° C. for 2 hours, then filtered through a glass filter GF/C and washed with 5 mM Tris buffer (pH7.4) containing 0.3% BSA. The radioactivity of the cake on the glass filter was measured. Non-specific binding was measured in the presence of 1 μM peptide YY, and a 50% Inhibitory Concentration (IC50) of the test compound against specific peptide YY binding was determined (Endocrinology; 131: 2090 (1992)).

[1] = Brain/cerebrospinal fluid transport test; format: in vivo; conditions: male SD rats, 2 hours after oral administration (10 mg/kg); for concentration at 2 h: rat
Protocol: A test compound was orally or intravenously administered to male SD rats (7-10 weeks old, 200-400 g), and whole blood was collected from the abdominal aorta of said rats anesthetized with ether at predetermined time, using a heparin-treated syringe. Then, the head skin was cut open, and a dental 30 G needle was inserted between the cervical vertebrae, and it was further inserted into the cavum subarachnoideale. After 50 to 100 μL cerebrospinal fluid had been collected by a 1 ml-syringe through a tube connected to said dental 30 G needle, the brain was extracted. The blood sample was centrifuged (4° C., 6,000 r.p.m., 10 minutes) to collect the plasma, to which was added 3-fold amount of ethanol containing an internal standard, and the mixture was stirred. The brain sample was homogenized after addition of 2 ml water, an aliquot of the homogenate was taken and 3-fold amount of ethanol containing an internal standard was added thereto and stirred. The cerebrospinal fluid was stirred after adding 3-fold amount of ethanol containing an internal standard. The samples thus obtained were allowed to stand at −20° C. for 20 minutes, and then centrifuged (4° C., 12,000 g, 10 minutes). The supernatant was analyzed by LC/MS/MS, and the concentration of the test compound in the plasma, brain, and cerebrospinal fluid were measured by the method using a relative calibration curve.

SMILES | IC50 (human NPY Y5 receptor) [nM] | further results
O=C1OC2(CCN(c3cc(-c4ccnc(-c5ccc(F)cc5)n4)[nH]n3)CC2)c2cnccc21 [Example 47, 3-[3-oxospiro[6-azaisobenzofuran-1(3H),4′-piperidin]-1′-yl]-5-[2-(4-fluorophenyl)pyrimidin-4-yl]-1H-pyrazole] | 2.2 | 
O=C1OC2(CCC(c3cc(-c4ccnc(-c5ccccc5)n4)[nH]n3)CC2)c2cnccc21 (stereo not drawn) [Example 29, trans-3-[3-oxospiro[6-azaisobenzofuran-1(3H),1′-cyclohexan]-4′-yl]-5-(2-phenylpyrimidin-4-yl)-1H-pyrazole] | 3.9 | concentration in the brain [1]: 3.01 nmol/g; concentration at 2 h ([1]; cerebrospinal fluid, read-out: concentration in the cerebrospinal fluid): 15 nM; concentration at 2 h ([1]; plasma, read-out: concentration in the plasma): 1160 nM
O=C1OC2(CCC(c3cc(-c4ccnc(-c5ccccc5)n4)[nH]n3)CC2)c2ccccc21 (stereo not drawn) [Example 23, trans-3-[3′-oxospiro[cyclohexane-1,1′(3′H)-isobenzofuran]-4-yl]-5-(2-phenylpyrimidin-4-yl)-1H-pyrazole] | 2.7 | 
O=C1OC2(CCN(c3nc(-c4ccc5ccccc5c4)n[nH]3)CC2)c2ccccc21 [Example 30, 3-(2-naphthyl)-5-[3-oxospiro[isobenzofuran-1-(3H),4′-piperidin]-1′-yl]-1H-1,2,4-triazole] | 4.2 | 
O=C1OC2(CCC(c3nn4nc(-c5ccccc5F)cc4[nH]3)CC2)c2cnccc21 (stereo not drawn) [Example 34, trans-6-(2-fluorophenyl)-2-[3-oxospiro[6-azaisobenzofuran-1(3H),1′-cyclohexan]-4′-yl]-1H-pyrazolo[2,3-b][1,2,4]-triazole] | 3.5 | 
O=C1OC2(CCC(c3nn4nc(-c5ccccc5)cc4[nH]3)CC2)c2cnccc21 (stereo not drawn) [Example 35, trans-2-[3-oxospiro[6-azaisobenzofuran-1(3H),1′-cyclohexan]-4′-yl]-6-phenyl-1H-pyrazolo[2,3-b][1,2,4]triazole] | 3.3 | 
O=C1OC2(CCC(c3cc(-c4cncc(-c5ccccc5)n4)[nH]n3)CC2)c2ccccc21 (stereo not drawn) [Example 24, trans-3-[3′-oxospiro[cyclohexane-1,1′(3′H)-isobenzofuran]-4-yl]-5-(6-phenylpyrazin-2-yl)-1H-pyrazole] | 3.9 | 
O=C1OC2(CCC(c3nn4nc(-c5ccccc5)cc4[nH]3)CC2)c2ccccc21 (stereo not drawn) [Example 36, trans-2-[3′-oxospiro[cyclohexane-1,1′(3′H)-isobenzofuran]-4-yl]-6-phenyl-1H-pyrazolo[2,3-b][1,2,4]triazole] | 1.8 | 

The next compounds have a lower IC50 (human NPY Y5 receptor) than those just listed; values first:

IC50 (human NPY Y5 receptor) [nM] | SMILES | further results
1.7 | O=C1OC2(CCN(c3nc(-c4ccc5ccccc5c4)c[nH]3)CC2)c2ccccc21 [Example 1, 4-(2-naphthyl)-2-[3-oxospiro[isobenzofuran-1(3H),4′-piperidin]-1′-yl]-1H-imidazole hydrochloride] | 
1.5 | O=C1OC2(CCN(c3cc(-c4ccnc(-c5ccccc5)n4)[nH]n3)CC2)c2cnccc21 [Example 45, 3-[3-oxospiro[6-azaisobenzofuran-1(3H),4′-piperidin]-1′-yl]-5-(2-phenylpyrimidin-4-yl)-1H-pyrazole] | 
1.6 | O=C1OC2(CCN(c3cc(-c4ccnc(-c5ccccc5)n4)[nH]n3)CC2)c2ccccc21 [Example 19, 3-[3-oxospiro[isobenzofuran-1(3H),4′-piperidin]-1′-yl]-5-(2-phenylpyrimidin-4-yl)-1H-pyrazole] | 
1.7 | O=C1OC2(CCN(c3cc(-c4ccnc(-c5ccccc5)c4)[nH]n3)CC2)c2ccccc21 [Example 14, 3-[3-oxospiro[isobenzofuran-1(3H),4′-piperidin]-1′-yl]-5-(2-phenylpyridin-4-yl)-1H-pyrazole] | 
1.5 | O=C1OC2(CCN(c3cc(-c4ccnc(-c5ccccc5F)n4)[nH]n3)CC2)c2cnccc21 [Example 46, 3-[3-oxospiro[6-azaisobenzofuran-1(3H),4′-piperidin]-1′-yl]-5-[2-(2-fluorophenyl)pyrimidin-4-yl]-1H-pyrazole] | 
